Holding throughout (conditions): HEK-293T
The test system of experiment [1] is Hepatitis C virus. Kind of experiment: Antiviral activity against pseudo HCV infected in human 293T cells assessed as inhibition of HCV pseudo particles entry at 10 uM after 72 hrs by luciferase reporter gene assay. The experiment is classed as functional, Hepacivirus hominis. (A reporter such as luciferase makes a cellular process visible.)
Experiment [2] has as its system Hepatitis C virus. Description: Antiviral activity against pseudo HCV infected in human 293T cells assessed as inhibition of HCV pseudo particles entry at 1 uM after 72 hrs by luciferase reporter gene assay. The experiment is classed as functional, Hepacivirus hominis.
Experiment [3] has as its system Vesicular stomatitis virus. Description: Antiviral activity against pseudo VSV infected in human 293T cells assessed as inhibition of vesicular stromatis G protein pseudo particles entry at 5 uM after 72 hrs by luciferase reporter gene assay. The experiment is classed as functional.
The test system of experiment [4] is Hepatitis C virus. Kind of experiment: Antiviral activity against pseudo HCV infected in human 293T cells assessed as inhibition of HCV pseudo particles entry at 5 uM after 72 hrs by luciferase reporter gene assay. The experiment is classed as functional, Hepacivirus hominis.
The test system of experiment [5] is Vesicular stomatitis virus. Description: Antiviral activity against pseudo VSV infected in human 293T cells assessed as inhibition of vesicular stromatis G protein pseudo particles entry at 1 uM after 72 hrs by luciferase reporter gene assay. The experiment is classed as functional.

What is called inhibition is the relative decrease from the control value, in per cent. For the compound `CC1(C)CC[C@]2(C(=O)O)CC[C@]3(C)[C@H](C(O)C[C@@H]4[C@@]5(C)CC[C@H](O)C(C)(C)[C@@H]5CC[C@]43C)[C@@H]2C1` (stereo not given in full), in the experiment with Hepatitis C virus [1], the inhibition at 10 µM was determined as 60%.

Consider `CC(=O)O[C@H]1CC[C@]2(C)[C@H]3CC=C4[C@@H]5CC(C)(C)CC[C@]5(C(=O)O)CC[C@@]4(C)[C@]3(C)CC[C@H]2C1(C)C` [ACETYL OLEANOLIC ACID], for which the inhibition at 10 µM in the experiment with Hepatitis C virus [1] is 10%.

Take `CC1(C)CC[C@]2(C(=O)O)CC[C@]3(C)C(=CC[C@@H]4[C@@]5(C)C[C@@H](O)[C@H](O)C(C)(C)[C@@H]5CC[C@]43C)[C@@H]2C1` [MASLINIC ACID]: the inhibition at 10 µM in the experiment on Hepatitis C virus [1] amounted to 0%.

As to `CC1(C)CC[C@]2(C(=O)O)CC[C@]3(C)C(=C[C@@H](O)[C@@H]4[C@@]5(C)CC[C@H](O)C(C)(C)[C@@H]5CC[C@]43C)[C@@H]2C1`, the inhibition at 10 µM in the experiment on Hepatitis C virus [1] came out at 50%.

As for `CC1(C)CC[C@]2(C(=O)O)CC[C@]3(C)C(=CC[C@@H]4[C@@]5(C)CC[C@H](O)[C@@](C)(C=O)[C@@H]5CC[C@]43C)[C@@H]2C1`, the inhibition at 10 µM with Hepatitis C virus [1] worked out at 0%.

With `CC1(C)CC[C@]2(C(=O)O)CC[C@]3(C)C(=CC[C@@H]4[C@@]5(C)CC[C@H](O)[C@@](C)(C(=O)O)[C@@H]5CC[C@]43C)[C@@H]2C1`, in the experiment with Hepatitis C virus [1], the inhibition at 10 µM was determined as 0%.

As to `C=C(C)[C@@H]1CC[C@]2(C(=O)O)CC[C@]3(C)[C@H](CC[C@@H]4[C@@]5(C)CC[C@H](O)C(C)(C)[C@@H]5CC[C@]43C)[C@@H]12` [BETULINIC ACID], in the experiment on Hepatitis C virus [1], the inhibition at 10 µM amounted to 75%.

As for `CC1(C)CC[C@]2(C(=O)O)CC[C@]3(C)C(=CC[C@@H]4[C@@]5(C)CC[C@H](O)[C@@](C)(CO)[C@@H]5CC[C@]43C)[C@@H]2C1` [HEDERAGENIN], in the experiment with Hepatitis C virus [1], the inhibition at 10 µM worked out at 10%.

With `CC1(C)CC[C@]2(C(=O)O)[C@H](O)C[C@]3(C)C(=CC[C@@H]4[C@@]5(C)CC[C@H](O)C(C)(C)[C@@H]5[C@H](O)C[C@]43C)[C@@H]2C1`, the inhibition at 10 µM in the experiment on Hepatitis C virus [1] came to 5%.

Regarding `CC1(C)CC[C@]2(C(=O)NCCCC[C@H](N)C(=O)O)CC[C@]3(C)C(=CC[C@@H]4[C@@]5(C)CC[C@H](O)C(C)(C)[C@@H]5CC[C@]43C)[C@@H]2C1`, the inhibition at 10 µM in the experiment with Hepatitis C virus [1] was determined as 60%.

Regarding `CC1(C)CC[C@]2(C(=O)O)CC[C@]3(C)C(=CC[C@@H]4[C@@]5(C)CC[C@H](OC6O[C@H](CO)[C@@H](O)[C@H](O)[C@H]6O)[C@@](C)(CO)[C@@H]5CC[C@]43C)[C@@H]2C1` (stereo not given in full), the inhibition at 10 µM in the experiment with Hepatitis C virus [1] came to 0%.

For `CC1(C)CC[C@]2(C(=O)O)CC[C@]3(C)C(=CC[C@@H]4[C@@]5(C)C[C@@H](O)[C@H](O)[C@@](C)(CO)[C@@H]5CC[C@]43C)[C@@H]2C1` [ARJUNOLIC ACID], the inhibition at 10 µM with Hepatitis C virus [1] worked out at 0%.

Regarding `C[C@H]1[C@H](C)CC[C@]2(C(=O)O)CC[C@]3(C)C(=CC[C@@H]4[C@@]5(C)CC[C@H](O)C(C)(C)[C@@H]5CC[C@]43C)[C@H]12` [URSOLIC ACID], the inhibition at 10 µM with Hepatitis C virus [1] stood at 30%.

`CC1(C)C[C@H]2C3=CC[C@@H]4[C@@]5(C)CC[C@H](O)C(C)(C)[C@@H]5CC[C@@]4(C)[C@]3(C)C[C@@H](O)[C@@]2(C(=O)O)C[C@@H]1O`: in the experiment with Hepatitis C virus [1], the inhibition at 10 µM was found to be 15%.

Turning to `CC1(C(=O)O)CC[C@]2(C)CC[C@]3(C)C(=CC(=O)[C@@H]4[C@@]5(C)CC[C@H](O)C(C)(C)[C@@H]5CC[C@]43C)[C@@H]2C1` (single isomer, unassigned) [ENOXOLONE], the inhibition at 10 µM in the experiment on Hepatitis C virus [1] is 5%.

Consider `CC1(C)CC[C@]2(C(=O)O)[C@H](O)C[C@]3(C)C(=CC[C@@H]4[C@@]5(C)CC[C@H](O)[C@@](C)(C=O)[C@@H]5CC[C@]43C)[C@@H]2C1` [QUILLAIC ACID], for which the inhibition at 10 µM in the experiment with Hepatitis C virus [1] came to 0%.

Turning to `CC1(C)CC[C@]2(C(=O)O)[C@H](O)C[C@]3(C)C(=CC[C@@H]4[C@@]5(C)CC[C@H](O)[C@@](C)(C(=O)O)[C@@H]5CC[C@]43C)[C@@H]2C1`, in the experiment with Hepatitis C virus [1], the inhibition at 10 µM was determined as 0%.

Turning to `COC(=O)[C@]12CCC(C)(C)C[C@H]1C1=CC[C@@H]3[C@@]4(C)CC[C@H](O)C(C)(C)[C@@H]4CC[C@@]3(C)[C@]1(C)CC2` [METHYL OLEANOLATE], the inhibition at 10 µM in the experiment on Hepatitis C virus [1] is 60%.

For the compound `CC(=O)OC[C@H]1O[C@@H](n2cc(CNC(=O)[C@]34CCC(C)(C)C[C@H]3C3=CC[C@@H]5[C@@]6(C)CC[C@H](O)C(C)(C)[C@@H]6CC[C@@]5(C)[C@]3(C)C[C@H]4O)nn2)[C@H](OC(C)=O)[C@@H](OC(C)=O)[C@@H]1O[C@@H]1O[C@H](COC(C)=O)[C@@H](OC(C)=O)[C@H](OC(C)=O)[C@H]1OC(C)=O`, the inhibition at 1 µM with Hepatitis C virus [2] was 11.9%; in experiment [5], 36.8%. Also, the inhibition at 5 µM in experiment [3] is 38.8%; in the experiment with Hepatitis C virus [4], 64.8%.

Take `COC(=O)[C@]12CCC(C)(C)C[C@H]1C1=CC[C@@H]3[C@@]4(C)CCC(=O)C(C)(C)[C@@H]4CC[C@@]3(C)[C@]1(C)CC2=O`: the figures for the inhibition at 1 µM (in the experiment with Hepatitis C virus [2]; in experiment [5]) were 48.2% and -10%, respectively. Further, the figures for the inhibition at 5 µM (in experiment [3]; in the experiment on Hepatitis C virus [4]) were -2.8% and 70.1%, respectively.

As for `CC1(C)CC[C@]2(C(=O)O)CC[C@]3(C)C(=CC[C@@H]4[C@@]5(C)CC[C@H](OC6O[C@H](CO)[C@@H](O)[C@H](O)[C@H]6O)C(C)(C)[C@@H]5CC[C@]43C)[C@@H]2C1` (stereo not given in full), the inhibition at 10 µM with Hepatitis C virus [1] worked out at 0%.

With `CC1(C)CC[C@]2(C(=O)O)CC[C@]3(C)C(=CC[C@@H]4[C@@]5(C)CC[C@H](O)C(C)(C)[C@@H]5[C@@H](O)C[C@]43C)[C@@H]2C1`, in the experiment on Hepatitis C virus [1], the inhibition at 10 µM stood at 0%.

As for `CC1(C)CC[C@]2(C(=O)O)CC[C@]3(C)C(=CC[C@@H]4[C@@]5(C)CCC(=O)C(C)(C)[C@@H]5CC[C@]43C)[C@@H]2C1` [OLEANONIC ACID], the inhibition at 10 µM with Hepatitis C virus [1] is 0%.

For `CC1(C)[C@@H](O)CC[C@]2(C)[C@H]3CC=C4[C@@H]5C[C@](C)(CO)CC[C@]5(C(=O)O)[C@H](O)C[C@@]4(C)[C@]3(C)CC[C@@H]12`, the inhibition at 10 µM with Hepatitis C virus [1] worked out at 90%.

For `CC1(C)CC[C@]2(C(=O)O[C@@H]3OC[C@@H](O)[C@H](O)[C@H]3O)[C@H](O)C[C@]3(C)C(=CC[C@@H]4[C@@]5(C)CC[C@H](O)C(C)(C)[C@@H]5CC[C@]43C)[C@@H]2C1`, the inhibition at 1 µM with Hepatitis C virus [2] is 33.8%; in experiment [5], 36.5%. Further, the inhibition at 5 µM in experiment [3] came out at 13%; in the experiment with Hepatitis C virus [4] it was 77.7%.

For the compound `CC1(C)CC[C@]2(C(=O)O)[C@H](OCc3ccccc3)C[C@]3(C)C(=CC[C@@H]4[C@@]5(C)CC[C@H](OCc6ccccc6)C(C)(C)[C@@H]5CC[C@]43C)[C@@H]2C1`, the figures for the inhibition at 1 µM (with Hepatitis C virus [2]; in experiment [5]) were 5.5% and 28.8%, respectively. The figures for the inhibition at 5 µM (in experiment [3]; in the experiment with Hepatitis C virus [4]) were 30.6% and 28.2%, respectively.

For `COC(=O)[C@]12CCC(C)(C)C[C@H]1C1=CC[C@@H]3[C@@]4(C)CC[C@H](O)C(C)(C)[C@@H]4CC[C@@]3(C)[C@]1(C)C[C@H]2OC`, the inhibition at 1 µM with Hepatitis C virus [2] worked out at 17.5%; in experiment [5] it was 7.3%. Moreover, the inhibition at 5 µM in experiment [3] stood at 9.9%; in the experiment on Hepatitis C virus [4] it was 33.7%.

In the case of `CC(=O)OC[C@H]1O[C@@H](n2cc(CNC(=O)[C@]34CCC(C)(C)C[C@H]3C3=CC[C@@H]5[C@@]6(C)CC[C@H](O)C(C)(C)[C@@H]6CC[C@@]5(C)[C@]3(C)C[C@H]4O)nn2)[C@H](OC(C)=O)[C@@H](OC(C)=O)[C@@H]1O[C@H]1O[C@H](COC(C)=O)[C@@H](O[C@H]2O[C@H](COC(C)=O)[C@@H](OC(C)=O)[C@H](OC(C)=O)[C@H]2OC(C)=O)[C@H](OC(C)=O)[C@H]1OC(C)=O`, the figures for the inhibition at 1 µM (in the experiment with Hepatitis C virus [2]; in experiment [5]) were 45.4% and 17.7%, respectively. In addition, the inhibition at 5 µM came out at 14% in experiment [3] and 62.9% with Hepatitis C virus [4].

As for `CC1(C)CC[C@]2(C(=O)O)[C@H](O)C[C@]3(C)C(=CC[C@@H]4[C@@]5(C)CC[C@H](O)[C@@](C)(CO)[C@@H]5CC[C@]43C)[C@@H]2C1`, in the experiment on Hepatitis C virus [1], the inhibition at 10 µM was determined as 20%.

In the case of `CC1(C)CC[C@]2(C(=O)O)CC[C@]3(C)[C@H](C(=O)C[C@@H]4[C@@]5(C)CC[C@H](O)C(C)(C)[C@@H]5CC[C@]43C)[C@@H]2C1`, in the experiment on Hepatitis C virus [1], the inhibition at 10 µM is 50%.

On to `CC(=O)OC[C@H]1O[C@H](O[C@H]2[C@H](OC(C)=O)[C@@H](OC(C)=O)[C@H](OC(=O)[C@]34CCC(C)(C)C[C@H]3C3=CC[C@@H]5[C@@]6(C)CC[C@H](O)C(C)(C)[C@@H]6CC[C@@]5(C)[C@]3(C)C[C@H]4O)O[C@@H]2COC(C)=O)[C@H](OC(C)=O)[C@@H](OC(C)=O)[C@@H]1OC(C)=O`, for which the inhibition at 1 µM was 36.5% in the experiment on Hepatitis C virus [2] and 20.9% in experiment [5]. Also, the values for the inhibition at 5 µM (in experiment [3]; in the experiment with Hepatitis C virus [4]) were 23.4% and 50%, respectively.

For the compound `CC1(C)CC[C@]2(C(=O)NCc3cn([C@@H]4OC[C@@H](O)[C@@H](O)[C@@H]4O)nn3)[C@H](O)C[C@]3(C)C(=CC[C@@H]4[C@@]5(C)CC[C@H](O)C(C)(C)[C@@H]5CC[C@]43C)[C@@H]2C1`, the results for the inhibition at 1 µM (with Hepatitis C virus [2]; in experiment [5]) were 18.7% and 8.4%, respectively. Further, the inhibition at 5 µM was determined as 25.1% in experiment [3] and 32.2% with Hepatitis C virus [4].

With `CC(=O)OC[C@H]1O[C@@H](OC(=O)[C@]23CCC(C)(C)C[C@H]2C2=CC[C@@H]4[C@@]5(C)CC[C@H](O)C(C)(C)[C@@H]5CC[C@@]4(C)[C@]2(C)C[C@H]3O)[C@H](OC(C)=O)[C@@H](OC(C)=O)[C@H]1OC(C)=O`, the inhibition at 1 µM in the experiment on Hepatitis C virus [2] is 43.4%; in experiment [5], 29.3%. Moreover, the results for the inhibition at 5 µM (in experiment [3]; in the experiment on Hepatitis C virus [4]) were 30.7% and 81.6%, respectively.

Values taken from ChEMBL document CHEMBL2385072, “Development of oleanane-type triterpenes as a new class of HCV entry inhibitors” (J Med Chem, 2013).
